Experimental data reported in patent publication US6706740B2, “Fungicidal heterocyclic aromatic amides and their compositions, methods of use and preparation” (Dow AgroSciences LLC, priority 1999, dated 2004).

Columns and labels:
[1] = system: Phytophthora infestans—PHYTIN; experiment: whole plant or invertebrate; assay type: in vivo; details: Phytophthora, in Solanum lycopersicum, 24 h, read-out: PHYTIN in vivo 1 Day Protectant
[2] = system: Leptosphaeria nodorum—LEPTNO; experiment: Glume Blotch of Wheat, in vivo whole plant, 24 Hour Protectant; details: wheat plants sprayed at 100 ppm, inoculated after 24 hours, control of fungal infection vs untreated plants; for pest or weed control at 100 ppm: Leptosphaeria, read-out: LEPTNO in vivo 1 Day Protectant
[3] = system: Stagonospora nodorum (Leptosphaeria nodorum—LEPTNO); experiment: In vitro fungal growth inhibition, Stagonospora nodorum (LEPTNO); assay type: cell-based; details: Leptosphaeria; 25 ppm in the growth medium; read-out: LEPTNO in vitro Growth Inhibition
[4] = system: Puccinia recondita—PUCCRT; experiment: Brown Rust of Wheat, in vivo whole plant, 24 Hour Protectant; details: wheat plants sprayed at 100 ppm, inoculated after 24 hours, control of fungal infection vs untreated plants; for pest or weed control at 100 ppm: Puccinia, read-out: PUCCRT in vivo 1 Day Protectant
Erysiphe graminis—ERYSGT = experiment: Powdery Mildew of Wheat, in vivo whole plant, 24 Hour Protectant; details: Erysiphe; wheat plants sprayed at 100 ppm, inoculated after 24 hours; control of fungal infection vs untreated plants; read-out: ERYSGT in vivo 1 Day Protectant
[5] = system: Magnaporthe grisea (Pyricularia oryzae—PYRIOR); experiment: microbe, parasite or virus in culture; assay type: cell-based; details: Pyricularia oryzae, read-out: PYRIOR in vitro Growth Inhibition
[6] = system: Rhizoctonia solani (RHIZSO); experiment: microbe, parasite or virus in culture; assay type: cell-based; details: Rhizoctonia solani, read-out: RHIZSO in vitro Growth Inhibition
[7] = system: Phytophthora infestans (PHYTIN); experiment: microbe, parasite or virus in culture; assay type: cell-based; details: Phytophthora infestans, read-out: PHYTIN in vitro Growth Inhibition
[8] = system: Mycosphaerella graminicola (Septoria tritici—SEPTTR); experiment: In vitro fungal growth inhibition, Mycosphaerella graminicola (SEPTTR); assay type: cell-based; details: Zymoseptoria tritici; 25 ppm in the growth medium; read-out: SEPTTR in vitro Growth Inhibition
Septoria tritici—SEPTTR = experiment: Leaf Blotch of Wheat, in vivo whole plant, 24 Hour Protectant; details: Zymoseptoria tritici, 24 h, wheat plants sprayed at 100 ppm, inoculated after 24 hours; control of fungal infection vs untreated plants; read-out: SEPTTR in vivo 1 Day Protectant
Ustilago maydis (USTIMA) = experiment: microbe, parasite or virus in culture; assay type: cell-based; details: Mycosarcoma maydis, read-out: USTIMA in vitro Growth Inhibition

Compound	pest or weed control at 100 ppm [1]	pest or weed control at 100 ppm [2]	inhibition at 25 ppm [3]	pest or weed control at 100 ppm [4]	melting point	pest or weed control at 100 ppm (Erysiphe graminis—ERYSGT)	inhibition at 25 ppm [5]	inhibition at 25 ppm [6]	inhibition at 25 ppm [7]	inhibition at 25 ppm [8]	pest or weed control at 100 ppm (Septoria tritici—SEPTTR)	inhibition at 25 ppm (Ustilago maydis (USTIMA))	PUCCRT in vivo 1 Day Protectant [4]	LEPTNO in vivo 1 Day Protectant [2]
COc1ccnc(C(=O)Nc2ccc(Oc3cc(Cl)nc(C(F)(F)F)c3)cc2)c1O [Compound 467]	< 25%	25 to 74%	> 80%	< 25%	198 to 201 °C	25 to 74%	< 80%	< 80%	< 80%	< 80%	25 to 74%	< 80%		
COc1ccnc(C(=O)Nc2cccc(Oc3ccc(C(F)(F)F)cc3)n2)c1O [Compound 469]	< 25%	25 to 74%	> 80%		149 to 151 °C	< 25%	> 80%	< 80%	< 80%	< 80%	25 to 74%	< 80%	+ +	
COc1ccnc(C(=O)Nc2ccc(Oc3ccc(C(F)(F)F)cc3)cn2)c1O [Compound 470]	< 25%	25 to 74%	> 80%	25 to 74%	173 to 175 °C	25 to 74%	> 80%	> 80%	< 80%	> 80%	25 to 74%	< 80%		
COc1ccnc(C(=O)Nc2ccc(Oc3cccc(C(F)(F)F)c3)nc2)c1O [Compound 471]	< 25%	25 to 74%	> 80%	25 to 74%	193 to 195 °C	< 25%	< 80%	< 80%	< 80%	< 80%	25 to 74%	< 80%		
CCOc1ccnc(C(=O)NC2CC(C)(C)CC(C)(C)C2)c1O [Compound 474]	< 25%	25 to 74%	< 80%	25 to 74%	107 to 110 °C	< 25%	< 80%	< 80%	< 80%	< 80%	< 25%	< 80%		
CCOc1ccnc(C(=O)NC2COC(=O)[C@H](Cc3ccccc3)[C@@H](OC(=O)C(C)C)[C@H](C)OC2=O)c1O (stereo partly drawn) [Compound 475]	< 25%		> 80%	25 to 74%	168 to 172 °C	< 25%	> 80%	< 80%	< 80%	> 80%	25 to 74%	< 80%		+ +
CCOc1ccnc(C(=O)Nc2ccc(Oc3cccc(C(F)(F)F)c3)cc2)c1O [Compound 476]	< 25%	25 to 74%	< 80%	< 25%	118 to 121 °C	< 25%	< 80%	< 80%	< 80%	< 80%	< 25%	< 80%		
CSc1ccnc(C(=O)NC2COC(=O)[C@H](Cc3ccccc3)[C@@H](OC(=O)C(C)C)[C@H](C)OC2=O)c1O (stereo partly drawn) [Compound 478]	< 25%	25 to 74%	< 80%	25 to 74%	184 to 187 °C	< 25%	< 80%	< 80%	< 80%	< 80%	25 to 74%	< 80%		
CSc1ccnc(C(=O)Nc2ccc(Oc3cccc(C(F)(F)F)c3)cc2)c1O [Compound 479]	< 25%	25 to 74%	< 80%	< 25%	129 to 132 °C	< 25%	< 80%	< 80%	< 80%	< 80%	25 to 74%	< 80%		
O=C(NCc1ccccn1)c1nc(Br)ccc1O [Compound 483]	< 25%	< 25%	> 80%	< 25%	124 to 126 °C	< 25%	< 80%	< 80%	< 80%	< 80%	< 25%	< 80%		
O=C(NCC1CCCc2ccccc21)c1nc(Br)ccc1O (stereo not drawn) [Compound 485]	< 25%	< 25%	< 80%	< 25%	140 to 142 °C	< 25%	< 80%	< 80%	< 80%	< 80%	< 25%	< 80%		
COc1ccc(C(C)NC(=O)c2nc(Br)ccc2O)cc1 (stereo not drawn) [Compound 486]	< 25%	< 25%	< 80%	< 25%	111 to 113 °C	< 25%	> 80%	< 80%	< 80%	< 80%	< 25%	< 80%		
CC(NC(=O)c1nc(Br)ccc1O)c1ccc(Cl)cc1 (stereo not drawn) [Compound 487]	< 25%	< 25%	< 80%	25 to 74%	106 to 107 °C	< 25%	> 80%	< 80%	< 80%	< 80%	< 25%	< 80%		
CC1(C)CC(NC(=O)c2cnccc2O)CC(C)(C)C1 [Compound 502]	< 25%	25 to 74%	< 80%	25 to 74%	232 to 235 °C (dec.)	< 25%	< 80%	< 80%	< 80%	< 80%	25 to 74%	< 80%		
